Molecular target: T1, ALK2 (Homo sapiens, UniProt Q04771, Q207D)
T1 construct: His tag (N, cleaved yes); made in house; host or cells: Sf9 insect cells (baculovirus)
T1 sequence (Q04771 201-499 Q207D): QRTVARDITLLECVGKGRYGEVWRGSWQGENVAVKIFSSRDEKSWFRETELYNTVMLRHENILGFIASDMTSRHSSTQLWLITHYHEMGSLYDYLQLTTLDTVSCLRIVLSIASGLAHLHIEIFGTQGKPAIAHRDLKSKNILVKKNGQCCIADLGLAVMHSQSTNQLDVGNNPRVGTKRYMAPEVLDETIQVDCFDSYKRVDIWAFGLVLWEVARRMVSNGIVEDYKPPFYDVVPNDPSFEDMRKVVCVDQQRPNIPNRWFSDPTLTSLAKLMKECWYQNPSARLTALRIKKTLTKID
Experiment: Thermal shift kinase assay
Type: binding
Settings: ALK2 ΔTm minus ALK5 ΔTm
Protocol: Thermal melting experiments were performed using a Real Time PCR machine Mx3005p (Stratagene) with a protein concentration of 1-2 μM and 10 μM inhibitor as described by Niesen et al., Nat Protoc 2007, 2, 2212-21. Recombinant human kinases for DSF screening were prepared by SGC using the published methods of […] et al., PLoS One 2013, 8, e62721. The potency and selectivity of certain compounds of the invention based on thermal shift kinase and ligand induced transcriptional activity assays are shown in Table 2.

ΔTm Diff. [°C] | Structure (SMILES)
−0.5 | CNc1ncc(-c2ccc(N3CCNCC3)cc2)cc1-c1cc(OC)c(OC)c(OC)c1 [Compound 24, N-methyl-5-(4-(piperazin-1-yl)phenyl)-3-(3,4,5-trimethoxyphenyl)pyridin-2-amine]
2.5 | Nc1ncc(-c2cccc(N3CCNCC3)c2)cc1-c1ccnc2ccccc12 [Compound 30, 5-(3-(piperazin-1-yl)phenyl)-3-(quinolin-4-yl)pyridin-2-amine]
2.7 | COc1cc(-c2cc(-c3ccc(N4CCNCC4)cc3)cnc2N)ccc1Cl [Compound 22, 3-(4-chloro-3-methoxyphenyl)-5-(4-(piperazin-1-yl)phenyl)pyridin-2-amine]
3.7 | COc1cc(-c2cncc(-c3ccc(N4CCNCC4)cc3)c2)cc(OC)c1OC [Compound 26, 1-(4-(5-(3,4,5-trimethoxyphenyl)pyridin-3-yl)phenyl)piperazine]
2.0 | COc1cc(-c2cc(-c3cccc(O)c3)cnc2N)cc(OC)c1OC [Compound K02288, 3-(6-Amino-5-(3,4,5-trimethoxyphenyl)pyridin-3-yl)phenol, reference compound]
3.8 | COc1cc(-c2cc(-c3ccc(N4CCNCC4)cc3)cnc2N)ccc1C [Compound 23, 3-(3-methoxy-4-methylphenyl)-5-(4-(piperazin-1-yl)phenyl)pyridin-2-amine]
4.2 | Nc1ncc(-c2ccc(N3CCNCC3)cc2)cc1-c1cccc2ncccc12 [Compound 31, 5-(4-(piperazin-1-yl)phenyl)-3-(quinolin-5-yl)pyridin-2-amine]
3.4 | Nc1ncc(-c2ccc(N3CCNCC3)cc2)cc1-c1ccnc2ccccc12 [Compound 29]
2.6 | COc1cc(-c2cnn3cc(-c4ccc(N5CCNCC5)cc4)cnc23)cc(OC)c1OC [Compound 32, 3-(3,4,5-trimethoxyphenyl)-6-[4-(1-piperazinyl)phenyl]pyrazolo[1,5-a]pyrimidine]
1.0 | CC(C)Oc1cccc(-c2cc(-c3ccc(N4CCNCC4)cc3)cnc2N)c1 [Compound 21, 3-(3-isopropoxyphenyl)-5-(4-(piperazin-1-yl)phenyl)pyridin-2-amine]

Continued, compound first:

Structure (SMILES) | ΔTm Diff. [°C]
COc1cc(-c2cnc(N)c(-c3cc(OC)c(OC)c(OC)c3)c2)ccc1O [Compound 12, 4-(6-amino-5-(3,4,5-trimethoxyphenyl)pyridin-3-yl)-2-methoxyphenol] | 1.7
COc1cc(-c2cc(-c3cccc(NS(C)(=O)=O)c3)cnc2N)cc(OC)c1OC [Compound 13, N-(3-(6-amino-5-(3,4,5-trimethoxyphenyl)pyridin-3-yl)phenyl)methanesulfonamide] | 0.9
COc1cc(OC)cc(-c2cc(-c3ccc(N4CCNCC4)cc3)cnc2N)c1 [Compound 17, 3-(3,5-dimethoxyphenyl)-5-(4-(piperazin-1-yl)phenyl)pyridin-2-amine] | 3.5
COc1cccc(-c2cc(-c3ccc(N4CCNCC4)cc3)cnc2N)c1 [Compound 18, 3-(3-methoxyphenyl)-5-(4-(piperazin-1-yl)phenyl)pyridin-2-amine] | 3.8
COc1ccc(-c2cc(-c3ccc(N4CCNCC4)cc3)cnc2N)cc1 [Compound 20, 3-(4-methoxyphenyl)-5-(4-(piperazin-1-yl)phenyl)pyridin-2-amine] | 4.5
COc1cc(-c2cc(-c3ccc(N4CCNCC4)cc3)cnc2Cl)cc(OC)c1OC [Compound 27, 1-(4-(6-chloro-5-(3,4,5-trimethoxyphenyl)pyridin-3-yl)phenyl)piperazine] | 3.8
COc1cc(-c2cc(-c3ccc(N4CCNCC4)cc3)cnc2N)cc(OC)c1OC [Compound 15, 5-(4-(piperazin-1-yl)phenyl)-3-(3,4,5-trimethoxyphenyl)pyridin-2-amine] | 1.2
COc1cc(-c2cc(-c3cccc(N4CCNCC4)c3)cnc2N)cc(OC)c1OC [Compound 14, 5-(3-(piperazin-1-yl)phenyl)-3-(3,4,5-trimethoxyphenyl)pyridin-2-amine] | 0.8
Nc1ncc(-c2ccc(N3CCNCC3)cc2)cc1-c1ccc2c(c1)OCCO2 [Compound 19, 3-(2,3-dihydrobenzo[b][1,4]dioxin-6-yl)-5-(4-(piperazin-1-yl)phenyl)pyridin-2-amine] | 4.0
COc1cc(-c2cc(-c3ccc(N4CCNCC4)cc3)cnc2OC)cc(OC)c1OC [Compound 28, 1-(4-(6-methoxy-5-(3,4,5-trimethoxyphenyl)pyridin-3-yl)phenyl)piperazine] | 0.1
COc1ccc(-c2cc(-c3ccc(N4CCNCC4)cc3)cnc2N)cc1OC [Compound 16, 3-(3,4-dimethoxyphenyl)-5-(4-(piperazin-1-yl)phenyl)pyridin-2-amine] | 4.3
COc1cc(-c2cc(-c3ccc(O)cc3)cnc2N)cc(OC)c1OC [Compound 11, 4-(6-Amino-5-(3,4,5-trimethoxyphenyl)pyridin-3-yl)phenol] | 1.5
COc1cc(-c2cc(-c3ccc(N4CCNCC4)cc3)cnc2C)cc(OC)c1OC [Compound 10, 1-(4-(6-methyl-5-(3,4,5-trimethoxyphenyl)pyridin-3-yl)phenyl)piperazine] | 4.0
COc1cc(-c2cc(-c3ccc(N4CCNCC4)cc3)cnc2N(C)C)cc(OC)c1OC [Compound 25, N,N-dimethyl-5-(4-(piperazin-1-yl)phenyl)-3-(3,4,5-trimethoxyphenyl)pyridin-2-amine] | 0.1
COc1cc(OC)cc(-c2cncc(-c3ccc(N4CCNCC4)cc3)c2)c1 [Compound 33, 1-(4-(5-(3,5-dimethoxyphenyl)pyridin-3-yl)phenyl)piperazine] | 4.7

Molecular target: PKC-η (Homo sapiens, UniProt P24723)
Sequence (P24723 whole entry): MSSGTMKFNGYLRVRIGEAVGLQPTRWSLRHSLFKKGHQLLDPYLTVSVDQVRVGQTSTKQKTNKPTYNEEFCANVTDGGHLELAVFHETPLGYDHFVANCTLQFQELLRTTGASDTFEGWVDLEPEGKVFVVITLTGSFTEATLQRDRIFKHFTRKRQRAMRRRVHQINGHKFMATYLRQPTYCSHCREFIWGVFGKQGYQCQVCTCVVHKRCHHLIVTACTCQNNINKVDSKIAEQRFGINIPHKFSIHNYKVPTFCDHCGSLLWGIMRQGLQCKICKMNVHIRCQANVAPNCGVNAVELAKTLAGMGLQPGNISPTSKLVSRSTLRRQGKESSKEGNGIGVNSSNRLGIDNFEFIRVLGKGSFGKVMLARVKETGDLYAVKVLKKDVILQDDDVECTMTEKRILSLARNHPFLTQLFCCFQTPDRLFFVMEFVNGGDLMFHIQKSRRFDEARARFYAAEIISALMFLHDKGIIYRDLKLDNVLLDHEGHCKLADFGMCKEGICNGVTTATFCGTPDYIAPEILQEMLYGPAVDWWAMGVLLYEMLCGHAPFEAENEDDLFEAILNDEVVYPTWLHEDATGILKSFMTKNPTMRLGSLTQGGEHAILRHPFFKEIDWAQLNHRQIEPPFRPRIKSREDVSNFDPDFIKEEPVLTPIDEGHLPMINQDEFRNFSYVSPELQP
Experiment: Kinome profiling
Type: biochemical
Settings: 100 nM, read-out: Inhibitory activity
Protocol: The kinome-wide selectivity was determined following the methods previously reported by Mohedas et al., ACS Chem Biol 2013, 8, 1291-1302 and […] et al., PLoS One 2013, 8, e62721.

inhibition at 0.1 µM [%] | Structure (SMILES)
5 | COc1cc(-c2cc(-c3ccc(N4CCNCC4)cc3)cnc2N)cc(OC)c1OC [Compound 15, 5-(4-(piperazin-1-yl)phenyl)-3-(3,4,5-trimethoxyphenyl)pyridin-2-amine]
